# In ChEMBL document CHEMBL3044830, “Synthesis, characterization, antibacterial, antifungal, and immunomodulating activities of gatifloxacin derivatives” (Med Chem Res, 2010):
# How the values were obtained:
# [1] = system: Proteus mirabilis; experiment: Antibacterial activity against Proteus mirabilis assessed as concentration required to obtain a zone of inhibition of 20 mm after 18 to 24 hr by disc diffusion method; assay type: functional
# [2] = system: Shigella flexneri; experiment: Antibacterial activity against Shigella flexneri assessed as concentration required to obtain a zone of inhibition of 10 mm after 18 to 24 hr by disk diffusion method; assay type: functional
# [3] = system: Pseudomonas aeruginosa; experiment: Antibacterial activity against Pseudomonas aeruginosa assessed as concentration required to obtain a zone of inhibition of 20 mm after 18 to 24 hr by disk diffusion method; assay type: functional
# [4] = system: Candida albicans; experiment: Antifungal activity against Candida albicans assessed as concentration required to obtain a zone of inhibition of 40 mm after 7 days by disk diffusion method; assay type: functional
# [5] = system: Candida albicans; experiment: Antifungal activity against Candida albicans assessed as zone of inhibition at 5 to 40 ug/ml after 7 days by disk diffusion method relative to gatifloxacin; assay type: functional
# [6] = system: Trichophyton rubrum; experiment: Antifungal activity against Trichophyton rubrum assessed as concentration required to obtain a zone of inhibition of 40 mm after 7 days by disk diffusion method; assay type: functional
# [7] = system: Klebsiella pneumoniae; experiment: Antibacterial activity against Klebsiella pneumoniae assessed as concentration required to obtain a zone of inhibition of 20 mm after 18 to 24 hr by disk diffusion method; assay type: functional
# [8] = Antibacterial activity against Hofmanni bacterium assessed as zone of inhibition after 18 to 24 hr by disc diffusion method relative to gatifloxacin
# [9] = system: Fusarium solani; experiment: Antifungal activity against Fusarium solani assessed as concentration required to obtain a zone of inhibition of 20 mm after 7 days by disk diffusion method; assay type: functional
# [10] = system: Shigella flexneri; experiment: Antibacterial activity against Shigella flexneri assessed as concentration required to obtain a zone of inhibition of 20 mm after 18 to 24 hr by disk diffusion method; assay type: functional
# [11] = system: Klebsiella pneumoniae; experiment: Antibacterial activity against Klebsiella pneumoniae assessed as concentration required to obtain a zone of inhibition of 5 mm after 18 to 24 hr by disk diffusion method; assay type: functional
# [12] = system: Fusarium solani; experiment: Antifungal activity against Fusarium solani assessed as zone of inhibition at 5 to 40 ug/ml after 7 days by disk diffusion method relative to gatifloxacin; assay type: functional
# [13] = system: Proteus mirabilis; experiment: Antibacterial activity against Proteus mirabilis assessed as concentration required to obtain a zone of inhibition of 5 mm after 18 to 24 hr by disc diffusion method; assay type: functional
# [14] = system: Citrobacter; experiment: Antibacterial activity against Citrobacter assessed as concentration required to obtain a zone of inhibition of 20 mm after 18 to 24 hr by disk diffusion method; assay type: functional
# [15] = system: Shigella flexneri; experiment: Antibacterial activity against Shigella flexneri assessed as concentration required to obtain a zone of inhibition of 5 mm after 18 to 24 hr by disk diffusion method; assay type: functional
# [16] = system: Bacillus subtilis; experiment: Antibacterial activity against Bacillus subtilis assessed as concentration required to obtain a zone of inhibition of 5 mm after 18 to 24 hr by disk diffusion method; assay type: functional
# [17] = system: Citrobacter; experiment: Antibacterial activity against Citrobacter assessed as concentration required to obtain a zone of inhibition of 5 mm after 18 to 24 hr by disk diffusion method; assay type: functional
# [18] = system: Bacillus subtilis; experiment: Antibacterial activity against Bacillus subtilis assessed as concentration required to obtain a zone of inhibition of 10 mm after 18 to 24 hr by disk diffusion method; assay type: functional
# [19] = system: Bacillus subtilis; experiment: Antibacterial activity against Bacillus subtilis assessed as zone of inhibition at 5 to 40 ug/ml after 18 to 24 hr by disk diffusion method relative to gatifloxacin; assay type: functional
# [20] = system: Escherichia coli; experiment: Antibacterial activity against Escherichia coli assessed as concentration required to obtain a zone of inhibition of 5 mm after 18 to 24 hr by disk diffusion method; assay type: functional
# [21] = system: Pseudomonas aeruginosa; experiment: Antibacterial activity against Pseudomonas aeruginosa assessed as concentration required to obtain a zone of inhibition of 5 mm after 18 to 24 hr by disk diffusion method; assay type: functional
# [22] = Antibacterial activity against Hofmanni bacterium assessed as concentration required to obtain a zone of inhibition of 5 mm after 18 to 24 hr by disc diffusion method
# [23] = system: Shigella sp.; experiment: Antibacterial activity against Shigella typhi assessed as zone of inhibition after 18 to 24 hr by disc diffusion method relative to gatifloxacin; assay type: functional
# [24] = system: Citrobacter; experiment: Antibacterial activity against Citrobacter assessed as zone of inhibition at 5 to 40 ug/ml after 18 to 24 hr by disk diffusion method relative to gatifloxacin; assay type: functional
# [25] = system: Escherichia coli; experiment: Antibacterial activity against Escherichia coli assessed as zone of inhibition at 5 to 40 ug/ml after 18 to 24 hr by disk diffusion method relative to gatifloxacin; assay type: functional
# [26] = system: Klebsiella pneumoniae; experiment: Antibacterial activity against Klebsiella pneumoniae assessed as zone of inhibition at 5 to 40 ug/ml after 18 to 24 hr by disk diffusion method relative to gatifloxacin; assay type: functional
# [27] = Antibacterial activity against Hofmanni bacterium assessed as concentration required to obtain a zone of inhibition of 20 mm after 18 to 24 hr by disc diffusion method
# [28] = system: Shigella flexneri; experiment: Antibacterial activity against Shigella flexneri assessed as zone of inhibition at 5 to 40 ug/ml after 18 to 24 hr by disk diffusion method relative to gatifloxacin; assay type: functional
# [29] = system: Escherichia coli; experiment: Antibacterial activity against Escherichia coli assessed as concentration required to obtain a zone of inhibition of 10 mm after 18 to 24 hr by disk diffusion method; assay type: functional
# [30] = system: Trichophyton rubrum; experiment: Antifungal activity against Trichophyton rubrum assessed as zone of inhibition at 5 to 40 ug/ml after 7 days by disk diffusion method relative to gatifloxacin; assay type: functional
# [31] = system: Proteus mirabilis; experiment: Antibacterial activity against Proteus mirabilis assessed as zone of inhibition at 5 to 40 ug/ml after 18 to 24 hr by disc diffusion method relative to gatifloxacin; assay type: functional
# [32] = system: Pseudomonas aeruginosa; experiment: Antibacterial activity against Pseudomonas aeruginosa assessed as concentration required to obtain a zone of inhibition of 10 mm after 18 to 24 hr by disk diffusion method; assay type: functional
# [33] = system: Candida albicans; experiment: Antifungal activity against Candida albicans assessed as concentration required to obtain a zone of inhibition of 20 mm after 7 days by disk diffusion method; assay type: functional
# [34] = system: Pseudomonas aeruginosa; experiment: Antibacterial activity against Pseudomonas aeruginosa assessed as zone of inhibition at 5 to 40 ug/ml after 18 to 24 hr by disk diffusion method relative to gatifloxacin; assay type: functional
# [35] = system: Citrobacter; experiment: Antibacterial activity against Citrobacter assessed as concentration required to obtain a zone of inhibition of 10 mm after 18 to 24 hr by disk diffusion method; assay type: functional
# [36] = system: Fusarium solani; experiment: Antifungal activity against Fusarium solani assessed as concentration required to obtain a zone of inhibition of 40 mm after 7 days by disk diffusion method; assay type: functional
# [37] = system: Staphylococcus aureus; experiment: Antibacterial activity against methicillin-resistant Staphylococcus aureus assessed as zone of inhibition at 5 to 40 ug/ml after 18 to 24 hr by disk diffusion method relative to gatifloxacin; assay type: functional
# [38] = system: Shigella sp.; experiment: Antibacterial activity against Shigella typhi assessed as concentration required to obtain a zone of inhibition of 5 mm after 18 to 24 hr by disc diffusion method; assay type: functional
# [39] = system: Klebsiella pneumoniae; experiment: Antibacterial activity against Klebsiella pneumoniae assessed as concentration required to obtain a zone of inhibition of 10 mm after 18 to 24 hr by disk diffusion method; assay type: functional
# [40] = system: Trichophyton rubrum; experiment: Antifungal activity against Trichophyton rubrum assessed as concentration required to obtain a zone of inhibition of 20 mm after 7 days by disk diffusion method; assay type: functional
# [41] = system: Saccharomyces cerevisiae; experiment: Antifungal activity against Saccharomyces cerevisiae assessed as zone of inhibition at 5 to 40 ug/ml after 7 days by disk diffusion method relative to gatifloxacin; assay type: functional
# [42] = system: Escherichia coli; experiment: Antibacterial activity against Escherichia coli assessed as concentration required to obtain a zone of inhibition of 20 mm after 18 to 24 hr by disk diffusion method; assay type: functional
# [43] = system: Bacillus subtilis; experiment: Antibacterial activity against Bacillus subtilis assessed as concentration required to obtain a zone of inhibition of 20 mm after 18 to 24 hr by disk diffusion method; assay type: functional
# [44] = Antibacterial activity against Hofmanni bacterium assessed as concentration required to obtain a zone of inhibition of 10 mm after 18 to 24 hr by disc diffusion method
# [45] = system: Proteus mirabilis; experiment: Antibacterial activity against Proteus mirabilis assessed as concentration required to obtain a zone of inhibition of 10 mm after 18 to 24 hr by disc diffusion method; assay type: functional
smiles,measurement,setting,value
C[C@@H]1CN(c2c(F)c(N)c3c(=O)c(C(=O)O)cn(C4CC4)c3c2F)C[C@H](C)N1 [SPARFLOXACIN],Activity,[1],15 µg/mL
same,Activity,[2],11 µg/mL
same,Activity,[3],15 µg/mL
same,Activity,[4],17 µg/mL
same,inhibition zone (IZ),[5],176%
same,Activity,[6],24 µg/mL
same,Activity,[7],16 µg/mL
same,inhibition zone (IZ),[8],110%
same,Activity,[9],10 µg/mL
same,Activity,[10],13 µg/mL
same,Activity,[11],10 µg/mL
same,inhibition zone (IZ),[12],70%
same,Activity,[13],10 µg/mL
same,Activity,[14],10 µg/mL
same,Activity,[15],9 µg/mL
same,Activity,[16],12 µg/mL
same,Activity,[17],8 µg/mL
same,Activity,[18],13 µg/mL
same,inhibition zone (IZ),[19],94.6%
same,Activity,[20],9 µg/mL
same,Activity,[21],11 µg/mL
same,Activity,[22],11 µg/mL
same,inhibition zone (IZ),[23],87%
same,inhibition zone (IZ),[24],42.73%
same,inhibition zone (IZ),[25],98.01%
same,inhibition zone (IZ),[26],96.1%
same,Activity,[27],14 µg/mL
same,inhibition zone (IZ),[28],75.1%
same,Activity,[29],11 µg/mL
same,inhibition zone (IZ),[30],169%
same,inhibition zone (IZ),[31],90%
same,Activity,[32],13 µg/mL
same,Activity,[33],13 µg/mL
same,inhibition zone (IZ),[34],117.6%
same,Activity,[35],9 µg/mL
same,Activity,[36],11 µg/mL
same,inhibition zone (IZ),[37],77.2%
same,Activity,[38],9 µg/mL
same,Activity,[39],13 µg/mL
same,Activity,[40],20 µg/mL
same,inhibition zone (IZ),[41],0%
same,Activity,[42],14 µg/mL
same,Activity,[43],15 µg/mL
same,Activity,[44],13 µg/mL
same,Activity,[45],12 µg/mL
